Converted amounts (≈) assume the structure as drawn. Some results are limits rather than exact numbers.

This note sets out measurements from US4997454A, “Method for making uniformly-sized particles from insoluble compounds” (The University of Rochester, priority 1989, dated 1991).

The solubility is the dissolved amount per volume that the medium holds.

On to `CCOC(=O)c1c(I)cc(I)c(NC(=O)CCCCC(=O)Nc2c(I)cc(I)c(C(=O)OCC)c2I)c1I` [IDE, iodipamide ethyl ester], for which the solubility in water is recorded as 10^-5 M.
Consider `O=C1NC(=O)[C@H]2[C@H]3C=C[C@@H]([C@@H]12)[C@@H]1[C@H]2C(=O)NC(=O)[C@H]2[C@H]31` [mitindomide], for which the solubility in “solubility” (absolute ethanol, organic solvent or mixture) is less than 4 µg/mL; in the series “solubility” (water), 70 µg/mL (≈ 257 µM).
